Experimental data: publication PMC6631462, “Quaternary Ammonium Leucine-Based Surfactants: The Effect of a Benzyl Group on Physicochemical Properties and Antimicrobial Activity” (Pharmaceutics, 2019)
“And” between values parts separate entries of the source, which are not always exact repeats. Equal values may be shown once. Read-outs that look alike come from different tables or passages of the source.

How the values were obtained:
[1] = tested on: erythrocytes; assay: Haemolytic assay; assay type: cell-based, mice; details: concentration causing 50% haemoglobin release from erythrocytes, mean ± SD
Procedure: (§1) Colorectal-carcinoma-derived epithelial Caco-2 cells (European Collection of Cell Cultures) and airway epithelial Calu-3 cells (American Type Culture Collection; ATCC) were cultured in DMEM supplemented with 10% of FBS and 1% of an antibiotic–antimycotic mixture. Erythrocytes were collected from mice blood. The cytotoxicity of the N-benzyl quaternary ammonium surfactants derived from leucine in comparison to the commercial BAC was studied by performing two cytotoxicity assays (MTS and LDH as indicators of metabolic activity and membrane integrity, respectively) and by a haemolytic assay. The assays were conducted as reported in our previous publications. EC50 values from the MTS assay (concentration of surfactant that causes 50% cell death) and the LDH assay (concentration of surfactants that causes 50% LDH release from cells), as well as HC50 values from the haemolytic assay (concentration of surfactants that causes 50% haemoglobin release from erythrocytes) were calculated using a nonlinear regression model (Prism version 5.0, GraphPad Inc., San Diego, CA, USA) as follows:(3) Y=BOTTOM+Top−Bottom/1+10^(LogEC50−x) Hill Slope where Top and Bottom are plateaux in the units of the Y axis.

[2] = tested on: Calu-3 cells; assay: MTS cytotoxicity assay on Calu-3 cells; assay type: cell-based; details: Calu-3, concentration causing 50% reduction of viable cells, mean ± SD
Procedure: as §1

[3] = tested on: Calu-3 cells; assay: LDH release assay on Calu-3 cells; assay type: cell-based; details: Calu-3, concentration causing 50% LDH release, mean ± SD
Procedure: as §1

[4] = tested on: Caco-2 cells; assay: LDH release assay on Caco-2 cells; assay type: cell-based; details: Caco-2, concentration causing 50% LDH release, mean ± SD
Procedure: as §1

[5] = Surface tension measurements (De Nouy ring tensiometry); assay type: physicochemical; details: for 10^6 Γmax (surface excess concentration): Gibbs equation from tensiometry; for 10^6 Γmax (surface excess concentration) / CMC / γCMC (surface tension at CMC): 25 °C; for 10^6 Γmax (surface excess concentration) / Amin (area per molecule at water–air interface): mean ± SD; for Amin (area per molecule at water–air interface): derived from Γmax; for CMC / γCMC (surface tension at CMC): ultrapure water, tensiometry, mean ± SD of three replicates
Procedure: Different concentrations for each surfactant were prepared by dissolving the compounds in ultrapure water. Their ability to decrease air–water surface tension was studied at 25 °C using a DCA-100 tensiometer (First Ten Angstrom, Portsmouth, VA, USA) according to the De Nouy ring method. Each recorded surface tension value was the mean of three consecutive measurements. The ‘breakpoint’ of the plot of surface tension versus concentration of surfactant was used to calculate the critical micelle concentration (CMC, i.e., the minimum concentration at which surfactants aggregate to form micelles) and the surface tension at CMC (γCMC). The “breakpoint” is the point of intersection of the two lines fitting the experimental data by a linear regression model (Prism version 5.0, GraphPad Inc., San Diego, CA, USA). Tensiometric measurements allowed for the calculation of an additional two parameters related to the surface behaviour of surfactants. The first is the ‘surface excess concentration’, Γmax, which is a measure of how many surfactant molecules are adsorbed at the air–water interface, which was calculated using the Gibbs equation:(1) Γmax=1/2.303 nRT (δγ/δlogC) where R is the gas constant (8.314 J/mol K); T is the absolute temperature (K); n is equal to 1 for single chain ionic surfactants displaying only one ionisable group; and dγ/d log C can be calculated from the slope of the straight section before the CMC in the plot of surface tension versus concentration of the surfactant.
The other parameter is the area occupied by a single molecule of surfactant at the water–air interface (As), and is derived from Γmax through the equation:(2) Amin= 10^18/NΓmax.
All analyses were performed in triplicate.

[6] = tested on: Candida albicans ATCC 24433; assay: Antimicrobial assay, MIC determination (adapted to yeast); assay type: cell-based; details: for MIC: C. albicans; for Selectivity index EC50/MIC: MIC C. albicans
Procedure: (§2) Bacterial strains were cultured overnight at 35–36 °C in blood agar plates. Minimum inhibitory concentrations (MICs) were determined according to previous reports and following protocols defined by the European Committee on Antimicrobial Susceptibility Testing (EUCAST). MICs against Candida albicans were determined using a similar protocol with some adaptations to the yeast growth and requirements. All tests were done in triplicate. [table]

[7] = tested on: Caco-2 cells; assay: MTS cytotoxicity assay on Caco-2 cells; assay type: cell-based; details: Caco-2, concentration causing 50% reduction of viable cells, mean ± SD
Procedure: as §1

[8] = tested on: Enterococcus faecalis ATCC 29212; assay: Antimicrobial assay, MIC determination (EUCAST); assay type: cell-based; details: for Selectivity index EC50/MIC: MIC E. faecalis; for MIC: E. faecalis
Procedure: as §2

[9] = tested on: Pseudomonas aeruginosa ATCC 27853; assay: Antimicrobial assay, MIC determination (EUCAST); assay type: cell-based; details: for Selectivity index EC50/MIC: MIC P. aeruginosa; for MIC: P. aeruginosa
Procedure: as §2

[10] = tested on: Staphylococcus aureus ATCC 25923; assay: Antimicrobial assay, MIC determination (EUCAST); assay type: cell-based; details: for Selectivity index EC50/MIC: MIC S. aureus; for MIC: S. aureus
Procedure: as §2

[11] = tested on: Escherichia coli ATCC 25922; assay: Antimicrobial assay, MIC determination (EUCAST); assay type: cell-based; details: for Selectivity index EC50/MIC: MIC E. coli; for MIC: E. coli
Procedure: as §2

[12] = Candida albicans, ATCC24433, read-out: MIC
[13] = Enterococcus faecalis, ATCC29212, read-out: MIC
[14] = Pseudomonas aeruginosa, ATCC27853, read-out: MIC
[15] = Staphylococcus aureus, ATCC25923, read-out: MIC
[16] = Escherichia coli, ATCC25922, read-out: MIC

Compound | Haemolysis HC50 [1] [mM] | EC50 ([2]; Homo sapiens) [µM] | EC50 ([3]; Homo sapiens) [µM] | EC50 ([4]; Homo sapiens) [µM] | 10^6 Γmax (surface excess concentration) [5] [mol/m^2] | Amin (area per molecule at water–air interface) [5] [A^2] | CMC [5] | γCMC (surface tension at CMC) [5] | MIC [6, 12] | Selectivity index EC50/MIC ([6]; EC50 from MTS assay on Caco-2) | Selectivity index EC50/MIC ([6]; EC50 from MTS assay on Calu-3) | EC50 ([7]; Homo sapiens) [µM] | Selectivity index EC50/MIC ([8]; EC50 from MTS assay on Calu-3) | MIC [8, 13] | Selectivity index EC50/MIC ([9]; EC50 from MTS assay on Caco-2) | Selectivity index EC50/MIC ([9]; EC50 from MTS assay on Calu-3) | Selectivity index EC50/MIC ([10]; EC50 from MTS assay on Caco-2) | Selectivity index EC50/MIC ([10]; EC50 from MTS assay on Calu-3) | Selectivity index EC50/MIC ([11]; EC50 from MTS assay on Caco-2) | Selectivity index EC50/MIC ([11]; EC50 from MTS assay on Calu-3) | also measured
CCCCCCCCCCOC(=O)C(CC(C)C)[N+](C)(C)Cc1ccccc1 (stereo not shown) [C10 LEU BENZ] | 0.148 ± 0.018 | 117 ± 5 | 187 ± 24 | 158 ± 15 | 6.76 ± 0.22 | 24.09 ± 1.45 | 1.88 ± 0.16 mM | around 30 mN/m and 31.75 ± 0.09 mN/m | 124 µM and 64 µg/mL | 1.3 | 0.9 | 160 ± 7 | 15.2 | 4 µg/mL and 7.7 µM | 0.6 | 0.5 | 42.1 | 30.8 | 1.3 | 0.9 | MIC [9, 14]: > 128 µg/mL and > 248 µM; MIC [10, 15]: 2 µg/mL and 3.8 µM; MIC [11, 16]: 64 µg/mL and 124 µM
CCCCCCCCCCCCOC(=O)C(CC(C)C)[N+](C)(C)Cc1ccccc1 (stereo not shown) [C12 LEU BENZ] | 0.054 ± 0.004 | 11 ± 2 | 19 ± 3 | 19 ± 2 | 6.10 ± 0.24 | 27.27 ± 1.34 | around 1 mM and 0.92 ± 0.11 mM | ~40 mN/m and 40.38 ± 0.13 mN/m | 29.3 µM and 16 µg/mL | 0.5 | 0.4 | 16 ± 3 | 1.0 | 4 µg/mL to 8 µg/mL and 10.6 µM | 0.07 | 0.05 | 1.5 | 1.0 | 0.3 | 0.2 | Selectivity index EC50/MIC ([8]; EC50 from MTS assay on Caco-2): 1.5; MIC [9, 14]: 128 µg/mL and 235 µM; MIC [10, 15]: 4 µg/mL to 8 µg/mL and 10.6 µM; MIC [11, 16]: 32 µg/mL and 58.6 µM
Benzalkonium chloride [BAC, reference compound] | 0.064 ± 0.004 | – | – | – | 5.35 ± 0.27 | 31.08 ± 1.60 | around 1 mM and 1.02 ± 0.06 mM | around 30 mN/m and 31.16 ± 0.05 mN/m | – | 2.9 | 1.9 | – | 7.7 | – | 0.4 | 0.2 | 11.5 | 7.7 | 2.9 | 1.9 | EC50 [2]: 22 ± 5 µM; EC50 [3]: 29 ± 5 µM; EC50 [4]: 48 ± 4 µM; MIC [6]: 4 mg/L; MIC ([6]; read-out: MIC): 11.5 µM; EC50 [7]: 33 ± 1 µM; MIC [8]: 1 mg/L; MIC ([8]; read-out: MIC): 2.9 µM; Selectivity index EC50/MIC ([8]; EC50 from MTS assay on Caco-2): 11.5; MIC [9]: 32 mg/L; MIC ([9]; read-out: MIC): 91.8 µM; MIC [10]: 1 mg/L; MIC ([10]; read-out: MIC): 2.9 µM; MIC [11]: 4 mg/L; MIC ([11]; read-out: MIC): 11.5 µM
CCCCCCCCCCCCCCOC(=O)C(CC(C)C)[N+](C)(C)Cc1ccccc1 (stereo not shown) [C14 LEU BENZ] | 0.027 ± 0.006 | 14 ± 2 | 14 ± 2 | 12 ± 2 | 7.39 ± 0.31 | 22.46 ± 1.11 | 0.12 ± 0.08 mM | ~40 mN/m and 40.35 ± 0.11 mN/m | 13.9 µM and 8 µg/mL | 0.9 | 1.0 | 13 ± 2 | 4.0 | 2 µg/mL and 3.5 µM | 0.06 | 0.06 | 5 | 5.4 | 0.5 | 0.5 | Selectivity index EC50/MIC ([8]; EC50 from MTS assay on Caco-2): 3.7; MIC [9, 14]: 128 µg/mL and 223 µM; MIC [10, 15]: 1 µg/mL to 2 µg/mL and 2.6 µM; MIC [11, 16]: 16 µg/mL and 27.9 µM
